Measurements published in patent publication US7105558B2, “Gastrin and cholecystokinin receptor lignads (iv)” (The James Black Foundation Limited, priority 2000, dated 2006).

Target: T1, gastrin (CCK2) receptors (Rattus norvegicus, UniProt P30553)
T1 construct: The stomach was excised and flushed with ca. 1 ml of unbuffered physiological saline solution; from tissue; host or cells: isolated whole stomach of immature rats (33-50 g, ca. 21 days old)
T1 sequence (P30553 1-452): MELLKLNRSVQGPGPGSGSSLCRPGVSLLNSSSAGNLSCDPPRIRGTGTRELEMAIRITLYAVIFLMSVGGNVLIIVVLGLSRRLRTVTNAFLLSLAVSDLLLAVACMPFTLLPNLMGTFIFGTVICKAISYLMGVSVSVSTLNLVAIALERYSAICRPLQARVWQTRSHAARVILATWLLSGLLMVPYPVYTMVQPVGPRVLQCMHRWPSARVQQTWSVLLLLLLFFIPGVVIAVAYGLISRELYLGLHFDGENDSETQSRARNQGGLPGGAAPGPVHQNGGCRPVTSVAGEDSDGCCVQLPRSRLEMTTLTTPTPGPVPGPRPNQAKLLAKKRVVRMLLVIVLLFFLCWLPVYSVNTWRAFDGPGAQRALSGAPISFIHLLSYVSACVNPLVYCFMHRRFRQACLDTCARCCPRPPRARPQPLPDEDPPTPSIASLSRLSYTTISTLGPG
Assay: immature rat stomach assay for gastrin (CCK2) antagonist activity (pentagastrin-stimulated acid secretion)
Conditions: isolated immature rat stomach, antagonism of pentagastrin dose-response curves, 60 min incubation; tested as N-methyl D-glucamine salts
Protocol: The compounds of the examples were tested for gastrin (CCK2) antagonist activity in an immature rat stomach assay. The procedure was as follows:
The oesophagus of immature rats (33-50 g, ca. 21 days old) was ligated at the level of the cardiac sphincter and the duodenal sphincter was cannulated. The stomach was excised and flushed with ca. 1 ml of unbuffered physiological saline solution. The fundus was punctured and cannulated. A further 4-5 ml of unbuffered solution was flushed through the stomach to ensure the preparation was not leaking. The stomach was lowered into a jacketed organ bath containing 40 ml of buffered solution containing 3×10^−8 M 5-methylfurmethide, maintained at 37° and gassed vigorously with 95% O2/5% CO2. The stomach was continuously perfused at a rate of 1 ml min^−1 with unbuffered solution gassed with 100% O2 with the perfusate passing over an internally referenced pH-electrode fixed 12 cm above the stomach.
After 120 min of stabilisation the drugs were added directly to the serosal solution in the organ bath and after a further 60 min cumulative pentagastrin dose-response curves were started. Changes in acid secretion were monitored and the curves analysed according to Black et al, Br. J. Pharmacol., 1985, 86, 581.

Row | Compound | Rat stomach pKB
1 | O=C(O)c1cccc(NC(=O)c2nn(C3CC4CCC3C4)nc2COC23CC4CC(CC(C4)C2)C3)c1 (stereo not drawn) [Example 11, Endo-3-[[5-(Adamantan-1-yloxymethyl)-2-bicyclo[2.2.1]hept-2-yl-2H-[1,2,3]triazole-4-carbonyl]-amino]-benzoic acid] | 8.37 ± 0.22
2 | O=C(O)c1cccc(NC(=O)c2nn[nH]c2COC23CC4CC(CC(C4)C2)C3)c1 [Example 24, 3-[[5-(Adamantan-1-yloxymethyl)-1/2/3H-[1,2,3]triazole-4-carbonyl]-amino]-benzoic acid] | 5.65 ± 0.33
3 | Nc1ccccc1-n1nc(COC23CC4CC(CC(C4)C2)C3)c(C(=O)Nc2cccc(C(=O)O)c2)n1 [Example 27] | 6.67 ± 0.17

Same assay, conditions: isolated immature rat stomach, antagonism of pentagastrin dose-response curves, 60 min incubation; tested as N-methyl D-glucamine salts; read-out: Rat stomach pKB (converted)

Row | Compound | Kb [nM]
4 | CC(C)c1ccccc1-n1nc(COC23CC4CC(CC(C4)C2)C3)c(C(=O)Nc2cccc(C(=O)O)c2)n1 [Example 17, 3-[[5-(Adamantan-1-yloxymethyl)-2-(2-isopropyl-phenyl)-2H-[1,2,3]triazole-4-carbonyl]-amino]-benzoic acid] | 263
5 | O=C(O)c1cccc(NC(=O)c2nn(-c3ccccc3Cl)nc2COC23CC4CC(CC(C4)C2)C3)c1 [Example 5, 3-[[5-(Adamantan-1-yloxymethyl)-2-(2-chloro-phenyl)-2H-[1,2,3]triazole-4-carbonyl]-amino]-benzoic acid] | 30.9
6 | O=C(O)c1cccc(NC(=O)c2nn(-c3c(Cl)cccc3Cl)nc2COC23CC4CC(CC(C4)C2)C3)c1 [Example 3, 3-[[5-(Adamantan-1-yloxymethyl)-2-(2,6-dichlorophenyl)-2H-[1,2,3]triazole-4-carbonyl]-amino]-benzoic acid] | 13.2
7 | O=C(O)c1cccc(NC(=O)c2nn(-c3ccccc3F)nc2COC23CC4CC(CC(C4)C2)C3)c1 [Example 12, 3-[[5-(Adamantan-1-yloxymethyl)-2-(2-fluoro-phenyl)-2H-[1,2,3]triazole-4-carbonyl]-amino]-benzoic acid] | 174
8 | Cc1ccc(C)c(-n2nc(COC34CC5CC(CC(C5)C3)C4)c(C(=O)Nc3cccc(C(=O)O)c3)n2)c1 [Example 22, 3-[[5-(Adamantan-1-yloxymethyl)-2-(2,5-dimethyl-phenyl)-2H-[1,2,3]triazole-4-carbonyl]-amino]-benzoic acid] | 282
9 | O=C(O)c1cccc(NC(=O)c2nn(-c3c(Cl)cccc3Cl)nc2COC2CCCCCC2)c1 [Example 29, 3-{[5-Cycloheptyloxymethyl-2-(2,6-dichloro-phenyl)-2H-[1,2,3]triazole-4-carbonyl]-amino}-benzoic acid] | 97.7
10 | O=C(O)c1cccc(NC(=O)c2nn(-c3c(Cl)cccc3Cl)nc2COc2ccccc2)c1 [Example 28, 3-{[2-(2,6-Dichloro-phenyl)-5-phenoxymethyl-2H-[1,2,3]triazole-4-carbonyl]-amino}-benzoic acid] | 1230
11 | CCc1ccccc1-n1nc(COC23CC4CC(CC(C4)C2)C3)c(C(=O)Nc2cccc(C(=O)O)c2)n1 [Example 8, 3-[[5-(Adamantan-1-yloxymethyl)-2-(2-ethyl-phenyl)-2H-[1,2,3]triazole-4-carbonyl]-amino]-benzoic acid] | 24
12 | O=C(O)c1cccc(NC(=O)c2nn(-c3cc(Cl)ccc3Cl)nc2COC23CC4CC(CC(C4)C2)C3)c1 [Example 23, 3-[[5-(Adamantan-1-yloxymethyl)-2-(2,5-dichloro-phenyl)-2H-[1,2,3]triazole-4-carbonyl]-amino]-benzoic acid] | 151
13 | O=C(O)c1cccc(NC(=O)c2nn(-c3c(Cl)cccc3Cl)nc2COC2CCCCC2)c1 [Example 30, 3-{[5-Cyclohexyloxymethyl-2-(2,6-dichloro-phenyl)-2H-[1,2,3]triazole-4-carbonyl]-amino}-benzoic acid] | 275
14 | O=C(O)c1cccc(NC(=O)c2nn(-c3ccccc3Br)nc2COC23CC4CC(CC(C4)C2)C3)c1 [Example 13, 3-[[5-(Adamantan-1-yloxymethyl)-2-(2-bromo-phenyl)-2H-[1,2,3]triazole-4-carbonyl]-amino]-benzoic acid] | 95.5
15 | Cc1cccc(-n2nc(COC34CC5CC(CC(C5)C3)C4)c(C(=O)Nc3cccc(C(=O)O)c3)n2)c1C [Example 19, 3-[[5-(Adamantan-1-yloxymethyl)-2-(2,3-dimethyl-phenyl)-2H-[1,2,3]triazole-4-carbonyl]-amino]-benzoic acid] | 74.1
16 | O=C(O)c1cccc(NC(=O)c2nn(-c3c(Cl)cc(Cl)cc3Cl)nc2COC23CC4CC(CC(C4)C2)C3)c1 [Example 4, 3-[[5-(Adamantan-1-yloxymethyl)-2-(2,4,6-trichlorophenyl)-2H-[1,2,3]triazole-4-carbonyl]-amino]-benzoic acid] | 191
17 | Cc1ccc(-n2nc(COC34CC5CC(CC(C5)C3)C4)c(C(=O)Nc3cccc(C(=O)O)c3)n2)c(C)c1 [Example 25, 3-[[5-(Adamantan-1-yloxymethyl)-2-(2,4-dimethyl-phenyl)-2H-[1,2,3]triazole-4-carbonyl]-amino]-benzoic acid] | 316
18 | O=C(O)Cc1cccc(NC(=O)c2nn(-c3c(Cl)cccc3Cl)nc2COC23CC4CC(CC(C4)C2)C3)c1 [Example 31, (3-{[5-(Adamantan-1-yloxymethyl)-2-(2,6-dichloro-phenyl)-2H-[1,2,3]triazole-4-carbonyl]-amino}-phenyl)acetic acid] | 2820
19 | O=C(O)c1cccc(NC(=O)c2nn(-c3ccccc3[N+](=O)[O-])nc2COC23CC4CC(CC(C4)C2)C3)c1 [Example 26, 3-[[5-(Adamantan-1-yloxymethyl)-2-(2-nitro-phenyl)-2H-[1,2,3]triazole-4-carbonyl]-amino]-benzoic acid] | 380
20 | COc1ccccc1-n1nc(COC23CC4CC(CC(C4)C2)C3)c(C(=O)Nc2cccc(C(=O)O)c2)n1 [Example 10, 3-[[5-(Adamantan-1-yloxymethyl)-2-(2-methoxy-phenyl)-2H-[1,2,3]triazole-4-carbonyl]amino]-benzoic acid] | 41.7
21 | O=C(O)c1cccc(NC(=O)c2c(COC34CC5CC(CC(C5)C3)C4)nnn2C2CCCCCC2)c1 [Example 32, 3-{[5-(Adamantan-1-yloxymethyl)-3-cycloheptyl-3H-[1,2,3]triazole-4-carbonyl]-amino}-benzoic acid] | 3720
22 | O=C(O)c1cccc(NC(=O)c2nn(-c3ccccc3-c3ccccc3)nc2COC23CC4CC(CC(C4)C2)C3)c1 [Example 21, 3-[[5-(Adamantan-1-yloxymethyl)-2-(biphenyl-2-yl)-2H-[1,2,3]triazole-4-carbonyl]-amino]-benzoic acid] | 240
23 | Cc1ccccc1-n1nc(COC23CC4CC(CC(C4)C2)C3)c(C(=O)Nc2cccc(C(=O)O)c2)n1 [Example 1, 3-[[5-(Adamantan-1-yloxymethyl)-2-(2-methyl-phenyl)-2H-[1,2,3]triazole-4-carbonyl]-amino]-benzoic acid] | 43.7
24 | O=C(O)c1cccc(NC(=O)c2nnn(-c3ccccc3Br)c2COC23CC4CC(CC(C4)C2)C3)c1 [Example 14, 3-[[5-(Adamantan-1-yloxymethyl)-1-(2-bromo-phenyl)-1H-[1,2,3]triazole-4-carbonyl]-amino]-benzoic acid] | 229
25 | O=C(O)c1cccc(NC(=O)c2nn(C3CCCCCC3)nc2COC23CC4CC(CC(C4)C2)C3)c1 [Example 15, 3-[[5-(Adamantan-1-yloxymethyl)-2-cycloheptyl-2H-[1,2,3]triazole-4-carbonyl]-amino]-benzoic acid] | 13.5
